From patent US10689367B2, “Triazole pyridyl compounds as agonists of the APJ receptor” (AMGEN INC., priority 2016, dated 2020) come the findings set out here.

human APJ receptor, sequence (P35414 whole entry): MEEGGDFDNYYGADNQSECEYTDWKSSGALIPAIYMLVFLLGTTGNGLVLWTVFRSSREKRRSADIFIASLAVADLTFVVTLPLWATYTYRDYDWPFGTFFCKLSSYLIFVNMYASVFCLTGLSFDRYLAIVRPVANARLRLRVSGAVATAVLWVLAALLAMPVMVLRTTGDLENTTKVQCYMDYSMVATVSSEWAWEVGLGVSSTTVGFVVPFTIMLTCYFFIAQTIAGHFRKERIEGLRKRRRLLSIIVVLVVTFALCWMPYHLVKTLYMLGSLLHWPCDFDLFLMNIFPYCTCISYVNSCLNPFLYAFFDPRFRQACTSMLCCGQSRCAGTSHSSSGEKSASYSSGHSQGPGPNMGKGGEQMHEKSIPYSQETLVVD

The assay concerns the target human APJ receptor (Homo sapiens (Human), UniProt P35414). The assay is described as follows: [35S]GTPγS binding assay on membranes from CHO cells stably expressing human APJ receptor. In kind it is biochemical. The following applies: membranes of CHO cells stably expressing human APJ receptor, read-out: Activity hAPJ SPA EC50 IP. The method, boiled down: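 [35S]GTPγS binding measured on membranes from CHO cells stably expressing FLAG-tagged human APJ, with GDP, MgCl2 and NaCl levels optimized beforehand. Incubation 90 min at RT, imager read-out; EC50 from non-linear regression, averaged over several independent experiments.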
(In general: Binding of GTPγS marks nucleotide exchange on a G protein.)
For the compound `COc1cccc(-c2nnc(NS(=O)(=O)[C@@H](C)[C@H](C)c3ncc(Cl)cn3)n2[C@H](C)c2cnn(C)c2)n1` (racemic) [Example 297.0, (2S,3R)-3-(5-chloropyrimidin-2-yl)-N-(5-(6-methoxypyridin-2-yl)-4-((R)-1-(1-methyl-1H-pyrazol-4-yl)ethyl)-4H-1,2,4-triazol-3-yl)butane-2-sulfonamide or (2S,3R)-3-(5-chloropyrimidin-2-yl)-N-(5-(6-methoxypyridin-2-yl)-4-((S)-1-(1-methyl-1H-pyrazol-4-yl)ethyl)-4H-1,2,4-triazol-3-yl)butane-2-sulfonamide], the EC50 was 4.3 nM.

Turning to `CO[C@H](c1ncc(Cl)cn1)[C@H](C)S(=O)(=O)Nc1nnc(-c2cncc(C)c2)n1C1CC1` [Example 149.0, (1R,2S)-1-(5-Chloropyrimidin-2-yl)-N-(4-cyclopropyl-5-(5-methylpyridin-3-yl)-4H-1,2,4-triazol-3-yl)-1-methoxypropane-2-sulfonamide], the EC50 was 36 nM.

As for `COCC1(n2c(NS(=O)(=O)[C@@H](C)[C@@H](OC(C)C)c3ncc(C)cn3)nnc2-c2cncc(C)c2)CC1` [Example 63.0], the EC50 was 20 nM.

Take `CO[C@H](c1ncc(Cl)cn1)[C@H](C)S(=O)(=O)Nc1nnc(-c2cccnc2)n1C(C)C` [Example 134.0, (1R,2S)-1-(5-chloro-2-pyrimidinyl)-1-methoxy-N-(4-(2-propanyl)-5-(3-pyridinyl)-4H-1,2,4-triazol-3-yl)-2-propanesulfonamide]: the EC50 was found to be 170 nM.

Regarding `COc1cccc(-c2nnc(NS(=O)(=O)[C@@H](C)[C@H](OC)c3ncc(Cl)cn3)n2C[C@@H]2COCCO2)n1` (racemic) [Example 303.0, (1R,2S)-N-(4-(((R)-1,4-dioxan-2-yl)methyl)-5-(6-methoxypyridin-2-yl)-4H-1,2,4-triazol-3-yl)-1-(5-chloropyrimidin-2-yl)-1-methoxypropane-2-sulfonamide or (1R,2S)-N-(4-(((S)-1,4-dioxan-2-yl)methyl)-5-(6-methoxypyridin-2-yl)-4H-1,2,4-triazol-3-yl)-1-(5-chloropyrimidin-2-yl)-1-methoxypropane-2-sulfonamide], the concentration for a half-maximal effect (EC50) amounted to 27 nM.

With `CO[C@H](c1cnc(C)cn1)[C@H](C)S(=O)(=O)Nc1nnc(-c2ccccn2)n1C1(C2CC2)CC1` [Example 110.0], the EC50 was determined as 110 nM.

On to `COc1cccc(-c2nnc(NS(=O)(=O)[C@@H](C)[C@H](OC)c3ncc(Cl)cn3)n2[C@H](C)c2cncs2)n1` (single isomer, unassigned) [Example 346.0, (1R,2S)-1-(5-chloropyrimidin-2-yl)-1-methoxy-N-(5-(6-methoxypyridin-2-yl)-4-((R)-1-(thiazol-5-yl)ethyl)-4H-1,2,4-triazol-3-yl)propane-2-sulfonamide or (1R,2S)-1-(5-chloropyrimidin-2-yl)-1-methoxy-N-(5-(6-methoxypyridin-2-yl)-4-((S)-1-(thiazol-5-yl)ethyl)-4H-1,2,4-triazol-3-yl)propane-2-sulfonamide], for which the EC50 amounted to 4.4 nM.

In the case of `COc1cccc(-c2nnc(NS(=O)(=O)[C@@H](C)[C@H](C)c3ncc(Cl)cn3)n2Cc2cc(C)no2)n1` [Example 190.0, (2S,3R)-3-(5-chloropyrimidin-2-yl)-N-(5-(6-methoxypyridin-2-yl)-4((3-methylisoxazol-5-yl)methyl)-4H-1,2,4-triazol-3-yl)butane-2-sulfonamide], the EC50 was 26 nM.

Take `COC[C@@H](C)n1c(NS(=O)(=O)[C@@H](C)[C@H](C)c2ncc(Cl)cn2)nnc1-c1cccnc1` (single isomer, unassigned) [Example 53.0]: the EC50 turned out to be 30 nM.

For the compound `COc1cccc(-c2nnc(NS(=O)(=O)[C@@H](C)[C@H](OC)c3ncc(Cl)cn3)n2CC2CCOC2)n1` (single isomer, unassigned) [Example 286.0, (1R,2S)-1-(5-chloropyrimidin-2-yl)-1-methoxy-N-(5-(6-methoxypyridin-2-yl)-4-(((R)-tetrahydrofuran-3-yl)methyl)-4H-1,2,4-triazol-3-yl)propane-2-sulfonamide or (1R,2S)-1-(5-chloropyrimidin-2-yl)-1-methoxy-N-(5-(6-methoxypyridin-2-yl)-4-(((S)-tetrahydrofuran-3-yl)methyl)-4H-1,2,4-triazol-3-yl)propane-2-sulfonamide], the EC50 was 55 nM.

Consider `COCC(COC)n1c(NS(=O)(=O)[C@@H](C)[C@H](C)c2cnc(C)cn2)nnc1-c1cccnc1` [Example 17.0, (2S,3R)-N-(4-(1,3-dimethoxy-2-propanyl)-5-(3-pyridinyl)-4H-1,2,4-triazol-3-yl)-3-(5-methyl-2-pyrazinyl)-2-butanesulfonamide], for which the EC50 came out at 380 nM.

With `CCc1noc(C)c1Cn1c(NS(=O)(=O)[C@@H](C)[C@H](C)c2ncc(Cl)cn2)nnc1-c1cccc(OC)n1` [Example 193.0, (2S,3R)-3-(5-chloro-2-pyrimidinyl)-N-(4-((3-ethyl-5-methyl-1,2-oxazol-4-yl)methyl)-5-(6-methoxy-2-pyridinyl)-4H-1,2,4-triazol-3-yl)-2-butanesulfonamide], the EC50 stood at 430 nM.

In the case of `COc1cccc(-c2nnc(NS(=O)(=O)[C@@H](C)[C@H](OC)c3ncc(Cl)cn3)n2[C@H](C)[C@@H]2CCCCO2)n1` (single isomer, unassigned) [Example 317.0], the EC50 worked out at 0.71 nM.

As for `COC[C@@H](C)n1c(NS(=O)(=O)[C@@H](C)[C@H](C)c2ncc(Cl)cn2)nnc1-c1cccnc1` (single isomer, unassigned) [Example 52.0], the EC50 was 16 nM.

Regarding `CC[C@H]([C@@H]1CCCCO1)n1c(NS(=O)(=O)[C@@H](C)[C@H](OC)c2ncc(Cl)cn2)nnc1-c1cccc(OC)n1` (single isomer, unassigned) [Example 326.0], the EC50 was 0.14 nM.

With `COc1cccc(-c2nnc(NS(=O)(=O)[C@@H](C)[C@H](OC)c3cnc(C)cn3)n2C2(C3CC3)CC2)n1` [Example 109.0], the EC50 was 9.6 nM.

For `COc1cccc(-c2nnc(NS(=O)(=O)[C@@H](C)[C@H](OC)c3ncc(Cl)cn3)n2CCS(C)(=O)=O)n1` [Example 57.0, (1R,2S)-1-(5-Chloro-2-pyrimidinyl)-1-methoxy-N-(5-(6-methoxy-2-pyridinyl)-4-(2-(methylsulfonyl)ethyl)-4H-1,2,4-triazol-3-yl)-2-propanesulfonamide], the EC50 was determined as 211 nM.

On to `CC[C@H](c1c(C)noc1C)n1c(NS(=O)(=O)[C@@H](C)[C@H](OC)c2ncc(Cl)cn2)nnc1-c1cccc(OC)n1` (mixture of isomers) [Example 211.0, (1R,2S)-1-(5-chloro-2-pyrimidinyl)-N-(4-((1R)-1-(3,5-dimethyl-1,2-oxazol-4-yl)propyl)-5-(6-methoxy-2-pyridinyl)-4H-1,2,4-triazol-3-yl)-1-methoxy-2-propanesulfonamide and (1R,2S)-1-(5-chloro-2-pyrimidinyl)-N-(4-((1S)-1-(3,5-dimethyl-1,2-oxazol-4-yl)propyl)-5-(6-methoxy-2-pyridinyl)-4H-1,2,4-triazol-3-yl)-1-methoxy-2-propanesulfonamide], for which the concentration for a half-maximal effect (EC50) was 1.8 nM.

On to `COc1cccc(-c2nnc(NS(=O)(=O)[C@@H](C)[C@H](OC)c3ncc(Cl)cn3)n2C[C@@H]2COCCO2)n1` (racemic) [Example 304.0, (1R,2S)-N-(4-(((R)-1,4-dioxan-2-yl)methyl)-5-(6-methoxypyridin-2-yl)-4H-1,2,4-triazol-3-yl)-1-(5-chloropyrimidin-2-yl)-1-methoxypropane-2-sulfonamide or (1R,2S)-N-(4-(((S)-1,4-dioxan-2-yl)methyl)-5-(6-methoxypyridin-2-yl)-4H-1,2,4-triazol-3-yl)-1-(5-chloropyrimidin-2-yl)-1-methoxypropane-2-sulfonamide], for which the EC50 is 20 nM.

With `COCC(COC)n1c(NS(=O)(=O)[C@@H](C)[C@H](C)c2ncc(Cl)cn2)nnc1-c1cccnc1` [Example 19.0, (2S,3R)-3-(5-chloro-2-pyrimidinyl)-N-(4-(1,3dimethoxy-2-propanyl)-5-(3-pyridinyl)-4H-1,2,4-triazol-3-yl)-2-butanesulfonamide], the EC50 was found to be 26 nM.

`COc1cccc(-c2nnc(NS(=O)(=O)[C@@H](C)[C@@H](OC(C)C)c3ncc(C)cn3)n2[C@H](C)[C@@H]2CCCCO2)n1` (single isomer, unassigned) [Example 324.0]: the EC50 was 0.35 nM.

Take `COc1cccc(-c2nnc(NS(=O)(=O)[C@@H](C)[C@H](C)c3ncc(Cl)cn3)n2Cc2cc(C(F)(F)F)no2)n1` [Example 204.0, (2S,3R)-3-(5-chloro-2-pyrimidinyl)-N-(5-(6-methoxy-2-pyridinyl)-4-((3-(trifluoromethyl)-1,2-oxazol-5-yl)methyl)-4H-1,2,4-triazol-3-yl)-2-butanesulfonamide]: the half-maximal effective concentration (EC50) was found to be 21 nM.

On to `COc1cccc(-c2nnc(NS(=O)(=O)[C@@H](C)[C@H](OC)c3ncc(Cl)cn3)n2C2CCCC2)n1` [Example 183.0, (1R,2S)-1-(5-chloro-2-pyrimidinyl)-N-(4-cyclopentyl-5-(6-methoxy-2-pyridinyl)-4H-1,2,4-triazol-3-yl)-1-methoxy-2-propanesulfonamide], for which the EC50 turned out to be 4.8 nM.

As to `COc1cccc(-c2nnc(NS(=O)(=O)[C@@H](C)[C@H](OC)c3ncc(Cl)cn3)n2[C@H](C)c2cncnc2)n1` (single isomer, unassigned) [Example 336.0, (1R,2S)-1-(5-chloropyrimidin-2-yl)-1-methoxy-N-(5-(6-methoxypyridin-2-yl)-4-((R)-1-(pyrimidin-5-yl)ethyl)-4H-1,2,4-triazol-3-yl)propane-2-sulfonamide or (1R,2S)-1-(5-chloropyrimidin-2-yl)-1-methoxy-N-(5-(6-methoxypyridin-2-yl)-4-((S)-1-(pyrimidin-5-yl)ethyl)-4H-1,2,4-triazol-3-yl)propane-2-sulfonamide], the EC50 was determined as 15 nM.

As a reminder, the EC50 is the concentration that produces a half-maximal response.
